Patent US6610648B2, “Malodor counteractant compositions” (Givaudan SA, priority 2000, dated 2003)
Where “and” joins values, the source holds several entries; their conditions need not be identical. Equal entries are not always repeated. Structures can show the parent of a compound that is named as a salt.

Tests used:
Set-up in all cases: species or system human
[1] = Synthetic axilla malodor on cotton pads, 10-member panel rating of malodor strength; settings: for Class A + Malodor (strength of the axilla malodor, panel score): 0.4 g ethanolic solution with 10% (wt) test compound on malodor pad, 10-member panel after 3 hours; for Class A + Malodor (strength of the axilla malodor, panel score) / 50% DHF/50% Class A (strength of the axilla malodor, panel score): scale 5 overpowering to 1 not detectable; for 50% DHF/50% Class A (strength of the axilla malodor, panel score): test solution 5% (wt) DHF and 5% (wt) Class A compound, after 3 hours
Protocol: 100 μl of synthetic axilla malodor was placed onto cotton pads. 0.4 g of an ethanolic solution containing 10% (wt) of a test compound identified in Table 1 was placed on each axilla malodor treated cotton pad. Each pad was allowed to dry 15 for minutes, and then evaluated using a 10-member panel after 3 hours. The test cotton pads were randomized, and each panelist was asked to check a box that represented the strength of the axilla malodor using the following scale:
In this example, the MO effect of various mixtures of a Class A MOC compound and a Class B MOC compound (i.e., dihexyl fumarate (“DHF”) as disclosed in Kulka, U.S. Pat. No. 3,074,892) were evaluated using the same test and malodor evaluation procedures as set forth in Example 1. Each test sol ion contained 5% (wt) DHF and 5% (wt) of the Class A compound identified in Table 3. The MOC effect was evaluated as in Example 1.
Various mixtures of OMC (a Class A Compound) and a Class B compound (i.e., various cyclohexyl esters as disclosed in Schleppnik '221) as identified in Table 4 below were made according to the procedure set forth in Example 1. The MOC of each mixture was evaluated using the procedure set forth in Example 1.

[2] = MOC of sweat malodor on fabric swatches; settings: Table 6
Protocol: The following fabric treatment solutions were prepared:
1. A solution of ethanol and Cremophor (a hydrogenated ethoxylated castor oil marketed by BASF Corp., Mount Olive, N.J.) containing 10% (wt) of dihexyl fumarate (DHF).
2. A solution of ethanol and Cremophor containing 10% (wt) of OMC.
3. A solution of ethanol and Cremophor containing 5% (wt) of DHF+5% (wt) OMC.
Five (5) fabric swatches were prepared, and labeled A-E. Swatch A was designated as the control swatch with no malodor. 100 μl of sweat malodor was placed in the middle of swatches B-E. Swatch B was designated as the control swatch for the malodor. The swatches were allowed to equilibrate with the malodor for 20 minutes. Onto swatches C-E, the following solutions were sprayed:
The malodor intensity on the cotton swatches was evaluated as follows:
The malodor intensity on swatch B (Malodor Control) was identified as a 5 (overpoweringly strong) on the scale of 1-5 set forth below at every time point, and the rest of swatches were evaluated based on that standard.

[3] = Garlic malodor on cotton fabric, 20-member panel; settings: 0.4 g of 5% OMC in ethanol on cotton pad with 2.5% (wt) garlic solution; average of 20 panelists; three hours; scale 1-5
Protocol: (§1) The ability of OMC to reduce the malodor intensity of tobacco smoke, onion, and garlic solutions on cotton fabric was determined.
(§2) Cotton cloth pads were evaluated by 20 panelists to determine how well OMC reduced the perceived odor of tobacco smoke, onion, and garlic solutions on cotton fabric.
(§3) Samples were prepared fresh before each evaluation. A solution of 2.5% (wt) garlic and a solution of 2.5% (wt) onion were both made using 39C alcohol as the solvent. Briefly, 0.4 g of the garlic and onion solutions were each sprayed onto cotton towel pads (100% cotton, 5×5cm). 0.4 g of a test solution containing 5% OMC in ethanol were then sprayed on the onion and garlic-treated cotton pads. The pads were allowed to dry for 15-20 minutes under a fume hood. Each pad was then placed in a blind coded Petri-dish.
(§4) Controls were prepared from cotton pads, which were treated only with the garlic or onion solution (i.e., no OMC test solution).
(§5) The effect of the test solutions on the garlic or onion odors were evaluated by asking a 20-member panel to rate the intensity of the malodor present on the controls and on the treated fabrics using a scale of 1-5 as shown below three hours after the preparation of each sample. The data are average values from the scores by each of the 20 panelists.

[4] = Onion malodor on cotton fabric, 20-member panel; settings: 0.4 g of 5% OMC in ethanol on cotton pad with 2.5% (wt) onion solution; average of 20 panelists; three hours; scale 1-5
Protocol: as §1, §2, §3, §4, §5

[5] = Tobacco smoke malodor on cotton fabric, 20-member panel; settings: 0.4 gram of 5% (wt) OMC in ethanol on smoke-treated cotton fabric; average of 20 panelists; three hours; scale 1-5
Protocol: as §1, §2, §5
Samples were prepared fresh before each evaluation. Clean pieces of fabric were treated with smoke by placing each fabric piece in a smoked filled environment for 10 minutes. Each piece of fabric was sprayed with 0.4 gram of the 5% (wt) OMC in ethanol test solution set forth above in the garlic and onion example. The treated fabric pieces were left to dry for 15 minutes, and then wrapped in foil.
Controls were prepared from a smoke-treated piece of cloth that was not sprayed with a test solution.
The fabric pieces were evaluated in the same way as described above in the onion and garlic example.

SMILES	Class A + Malodor (strength of the axilla malodor, panel score) [1]	50% DHF/50% Class A (strength of the axilla malodor, panel score) [1]	also measured
CCCCCCOC(=O)/C=C/C(=O)OCCCCCC [Dihexyl Fumarate, reference compound]	–	–	10% test (Compound B Alone) malodor score ([1]; 10% Class B compound alone, procedure of Example 1, scale 1-5): 2.6; 5% OMC + 5% Compound B malodor score ([1]; mixture 5% OMC + 5% Class B compound, procedure of Example 1, scale 1-5): 2.3; MOC effect in words, compound alone [2]: had a MOC effect
CCCCCCCCCCOC(=O)/C=C/c1ccccc1 [GR 85 3428]	2.8	3.3	–
C/C(=C\c1ccccc1O)C(=O)OCCC(C)CCc1ccccc1 (centres unmarked) [GR 85-1407]	3.4	3.0	–
CC(C)=CCCC(C)CCOC(=O)/C=C/c1ccccc1O (centres unmarked) [GR 85-2280]	2.9	3.1	–
CC(C)=CCCC(C)CCOC(=O)/C(C#N)=C/c1ccccc1O (centres unmarked) [GR 85-2661]	2.9	2.4	–
COc1ccc(OC)c(/C=C/C(=O)OCCC(C)CCC=C(C)C)c1 (centres unmarked) [GR 85-3260]	3.5	2.9	–
COC(=O)/C(C#N)=C/c1ccccc1 [GR 85-3427]	3.0	3.3	–
CCCCC(CC)COC(=O)/C=C/c1ccccc1 (centres unmarked) [GR 85-3429]	3.3	2.8	–
CC(C)=CCCC(C)CCOC(=O)/C=C/c1ccccc1O[Si](C)(C)C (centres unmarked) [GR 85-3565]	2.7	3.1	–
CCCCC(C)COC(=O)C1=Cc2ccc(OC)cc2CC1 (centres unmarked) [GR 85-6495]	2.8	3.0	–
CCCCC(C)COC(=O)c1cc2ccccc2oc1=O (centres unmarked) [GR 85-6924]	2.9	2.5	–
CCCCC(CC)COC(=O)/C=C/c1ccc(OC)cc1 (centres unmarked) [OMC, Octyl methoxy cinnamate]	2.6	2.3	10% OMC (Alone) malodor score ([1]; 10% OMC alone, run beside the Compound B of that line, scale 1-5): 3.1 and 2.6 and 3.0; MOC effect in words, mixture of Class A and Class B compound versus alone ([1]; axilla malodor test pads, Tables 3 and 4): acts at least additively with the Class B compounds; Malodor intensity, Garlic [3]: 2.6; Malodor intensity, Onion [4]: 2.7; Malodor intensity, Smoke [5]: 1.8; MOC effect in words, compound alone [2]: had a MOC effect
O=C(/C=C/c1ccccc1)OCCc1ccccc1 [PC, Phenylethylcinnamate]	2.2	–	–
